pIC50: −log10 of the molar value.
Key:
MYC = assay: oncoprotein level by FACS at 96 h in 6 HCC PDO lines; type: cell-based, human
Text: (§1) FIG. 3A-3H. Mechanism of Omacetaxine action on different HCC patient derived organoids lines. (3A). […] (3B). […] (3C) The mean fluorescence intensity ratio reflected protein synthesis rate of the plots data in (a). (3D-3H).
(§2) Select oncoproteins, such as MYC, beta-catenin, Cyclin D1, XIAP and MET are short half-life proteins^20, 26, 27.

XIAP = assay: as above; type: cell-based, human
Text: as §1, §2

beta-catenin = assay: as above; type: cell-based, human
Text: as §1, §2

Cyclin D1 = assay: as above; type: cell-based, human
Text: as §1, §2

MET = assay: as above; type: cell-based, human
Text: as §1, §2

26-3 PDX = assay: Cleaved Caspase 3 staining of PDX tumor frozen sections; type: in vivo, NSG mice; conditions: omacetaxine treated HCC PDX tumors vs matched controls
Text: FIG. 8A-8G. Omacetaxine inhibits tumor cell proliferation and increases apoptosis and suppressed HCC oncoprotein expression in vivo. (8A-8D) Immunofluorescent staining of Ki67 and cleaved caspase 3 expression in 26-3 PDX model. 8A-8B show the IF staining pictures, 8C-8D show the relative Ki67 or cleaved caspase 3 positive cell number in omacetaxine treated mice compared with control treatment groups. (8E-8G) Omacetaxine suppressed HCC oncoprotein: c-Myc, Beta-catenin and MET protein expression in 50 HCC PDX treated with Omacetaxine vs control.
To verify the mechanism of omacetaxine target HCC mechanism in vivo, omacetaxine treated HCC PDX tumors, as well as matched controls, were harvested, and frozen section slides were made. […] The difference in apoptosis as well as proliferation was statistically significant (FIGS. 8C and 8D).

HCC 38 = assay: IC50 in PDO line; type: cell-based; conditions: Homo sapiens
Experimental: (§3) The inventors tested omacetaxine at decreasing concentrations (10 μM, 1 μM, 100 nM, 10 nM and 1 nM) to calculate the half-maximal inhibitory concentration (IC50). […] The IC50 value for each of the 40 HCC PDO lines can be found in Table 2.

HCC 71-2 = assay: IC50 in PDO line; type: cell-based; conditions: Homo sapiens
Experimental: as §3

HCC 40 = assay: IC50 in PDO line; type: cell-based; conditions: Homo sapiens
Experimental: as §3

HCC 35 = assay: IC50 in PDO line; type: cell-based; conditions: Homo sapiens
Experimental: as §3

HCC 50 = assay: IC50 in PDO line; type: cell-based; conditions: Homo sapiens
Experimental: as §3

HCC 26-5 = assay: IC50 in PDO line; type: cell-based; conditions: Homo sapiens
Experimental: as §3

HCC 67-1 = assay: IC50 in PDO line; type: cell-based; conditions: Homo sapiens
Experimental: as §3

HCC 36-3 = assay: IC50 in PDO line; type: cell-based; conditions: Homo sapiens
Experimental: as §3

HCC 80-2 = assay: IC50 in PDO line; type: cell-based; conditions: Homo sapiens
Experimental: as §3

HCC 80-3 = assay: IC50 in PDO line; type: cell-based; conditions: Homo sapiens
Experimental: as §3

HCC 71-4 = assay: IC50 in PDO line; type: cell-based; conditions: Homo sapiens
Experimental: as §3

HCC 30 = assay: IC50 in PDO line; type: cell-based; conditions: Homo sapiens
Experimental: as §3

HCC 83-1 = assay: IC50 in PDO line; type: cell-based; conditions: Homo sapiens
Experimental: as §3

HCC 65-2 = assay: IC50 in PDO line; type: cell-based; conditions: Homo sapiens
Experimental: as §3

HCC 67-3 = assay: IC50 in PDO line; type: cell-based; conditions: Homo sapiens
Experimental: as §3

HCC71-3 = assay: IC50 in PDO line; type: cell-based; conditions: Homo sapiens
Experimental: as §3

6 HCC PDO lines [1] = assay: Annexin V / 7AAD flow cytometry apoptosis assay; type: cell-based, human; conditions: 700 μM, 350 μM, 96 h
Experimental: FIG. 5A-5E. Apoptosis analysis of HCC PDOs treated with omacetaxine in vitro. Organoids were plate on 24 well plate, omacetaxine at 700 μM, 350 μM were added to cell culture medium for 96 h. Then cells were collected and subjected to the analysis below. (5A and 5C). […] (5B and 5D). Flow cytometry analysis of cleaved caspase 3 expression of omacetaxine treated HCC PDOs. […] The effects on proliferation were assessed to elucidate the omacetaxine mechanisms of action. […] To further understand the effects of omacetaxine on cancer cell proliferation and cell cycle, the inventors performed FACS analysis of Ki67 protein. Ki-67 is a nuclear protein expressed in proliferating cells (in all phases of the cell cycle except G0)^22,23. Furthermore, the higher expression of Ki67 has been linked to poorer disease free survival and overall survival in HCC^24. […] As caspase 3 is a key molecule in apoptosis, the inventors measured its activated (cleaved) fragment.

40 HCC PDO lines = assay: omacetaxine dose response, IC50 across all 40 HCC PDO lines; type: cell-based; conditions: Homo sapiens; average of 40 HCC PDO lines; read-out: calculated average IC50 across all 40 HCC PDO lines
Experimental: FIG. 2A-2E. 10 μM drug screening and IC50 calculation across 40 PDOs from 20 HCC patients. (2A). 10 μM drug screening of omacetaxine and sorafenib, regorafenib, lenvatinib and cabozantinib on 40 PDOs derived from 20 HCC patients. X axis—the 40 PDO lines, Y axis—Cell viability. (2B). IC50 curve of 40 PDO lines, x-axis—omacetaxine dose, Y axis—Relative cell viability. (2C). […] (2D). IC50 distribution of 40 HCC PDOs. X axis—PDO lines, Y axis—IC50 number of omacetaxine for each PDO.

6 HCC PDO lines [2] = assay: cell cycle analysis; type: cell-based, human
Experimental: FIG. 6A-6B. Cell cycle analysis of omacetaxine treated HCC PDOs. […] (6A) The histogram of cell cycle distributions.
The effects on proliferation were assessed to elucidate the omacetaxine mechanisms of action. […] To further understand the effects of omacetaxine on cancer cell proliferation and cell cycle, the inventors performed FACS analysis of Ki67 protein. Ki-67 is a nuclear protein expressed in proliferating cells (in all phases of the cell cycle except G0)^22,23. Furthermore, the higher expression of Ki67 has been linked to poorer disease free survival and overall survival in HCC^24. […] As caspase 3 is a key molecule in apoptosis, the inventors measured its activated (cleaved) fragment.

Q: How did the MYC level (MYC) turn out when `COC(=O)C[C@](O)(CCCC(C)(C)O)C(=O)O[C@@H]1C(OC)=C[C@]23CCCN2CCc2cc4c(cc2[C@H]13)OCO4` [omacetaxine, omacetaxine mepusuccinate] was run?
A: inhibited

Q: And the XIAP level (XIAP)?
A: inhibited

Q: What about the beta-catenin level (beta-catenin) of the same molecule?
A: inhibited

Q: And the “Cyclin D1 level” value (Cyclin D1)?
A: inhibited

Q: What about the MET level (MET) of the same molecule?
A: inhibited

Q: And the “apoptosis as quantified by Cleaved Caspase 3 staining” value (26-3 PDX)?
A: increased

Q: What about the pIC50 (HCC 38) of the same molecule?
A: 7.73

Q: What about the pIC50 (HCC 71-2) of the same molecule?
A: 8.69

Q: What about the pIC50 (HCC 40) of the same molecule?
A: 7.80

Q: And the pIC50 (HCC 35)?
A: 7.88

Q: What about the pIC50 (HCC 50) of the same molecule?
A: 7.53

Q: What about the pIC50 (HCC 26-5) of the same molecule?
A: 7.18

Q: What about the pIC50 (HCC 67-1) of the same molecule?
A: 8.40

Q: What about the pIC50 (HCC 36-3) of the same molecule?
A: 7.09

Q: What about the pIC50 (HCC 80-2) of the same molecule?
A: 7.36

Q: And the pIC50 (HCC 80-3)?
A: 7.81

Q: What about the pIC50 (HCC 71-4) of the same molecule?
A: 8.00

Q: What about the pIC50 (HCC 30) of the same molecule?
A: 7.30

Q: And the pIC50 (HCC 83-1)?
A: 7.75

Q: What about the pIC50 (HCC 65-2) of the same molecule?
A: 8.13

Q: What about the pIC50 (HCC 67-3) of the same molecule?
A: 8.78

Q: And the pIC50 (HCC71-3)?
A: 8.82

Q: What about the “early / late apoptosis (Annexin V, 7AAD)” value (6 HCC PDO lines [1]) of the same molecule?
A: either early apoptosis, or late apoptosis, or both were increased

Q: What about the pIC50 (40 HCC PDO lines) of the same molecule?
A: 7.45

Q: What about the cell cycle arrest (6 HCC PDO lines [2]; 6 HCC PDOs, dose-dependent) of the same molecule?
A: induces G0/G1 arrest

Q: What about the “G0/G1 fraction with rising omacetaxine dose” value (6 HCC PDO lines [2]; all 6 HCC PDOs) of the same molecule?
A: around 90%
